Assay results as given in the supplement of paper PMC12463676, “Small-molecule dissolution of stress granules by redox modulation benefits ALS models” (Nature Chemical Biology, 2025).

Columns and labels:
potassium arsenate = compound: O=[As]([O-])(O)O.[K+] [potassium arsenate]; assay: thermal stability z-score vs DMSO; higher = more thermally stabilized by treatment; details: HeLa; arsenate concentration 1 mM
Experimental: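 Cellular thermal proteome profiling in HeLa cells treated with 1 mM arsenate for 1 h (DMSO pretreatment), heated to ten temperatures (37-66.3 °C). Soluble protein was quantified by TMT mass spectrometry relative to DMSO controls; the thermal stability score was transformed to a z-score; mean of n = 3 experiments.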

lipoamide = compound: NC(=O)CCCCC1CCSS1 [lipoamide]; assay: as above; details: HeLa, lipoamide concentration 100 µM
Experimental: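 Cellular thermal proteome profiling in HeLa cells. Cells were treated with 100 µM lipoamide for 1 h, with or without 1 mM arsenate for a further 1 h, then heated to ten temperatures (37-66.3 °C), and soluble protein was quantified by TMT mass spectrometry relative to 0.1% DMSO controls. The thermal stability score (sum of log2 fold changes minus the abundance score) was transformed to a z-score; mean of n = 3 experiments.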

[1] = arsenate co-treatment: 1 mM arsenate 1 h
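Also: each temperature applied for 3 min, abundance score taken as mean log2 fold change at the two lowest temperatures, z-score obtained by mean subtraction and division by SD.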

Sequence of UniProt P61769 (P61769 whole entry): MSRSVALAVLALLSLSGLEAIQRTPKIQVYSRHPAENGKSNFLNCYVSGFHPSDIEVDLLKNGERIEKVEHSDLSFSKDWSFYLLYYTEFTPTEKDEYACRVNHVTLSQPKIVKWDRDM
Sequence of UniProt P52272 (P52272 whole entry): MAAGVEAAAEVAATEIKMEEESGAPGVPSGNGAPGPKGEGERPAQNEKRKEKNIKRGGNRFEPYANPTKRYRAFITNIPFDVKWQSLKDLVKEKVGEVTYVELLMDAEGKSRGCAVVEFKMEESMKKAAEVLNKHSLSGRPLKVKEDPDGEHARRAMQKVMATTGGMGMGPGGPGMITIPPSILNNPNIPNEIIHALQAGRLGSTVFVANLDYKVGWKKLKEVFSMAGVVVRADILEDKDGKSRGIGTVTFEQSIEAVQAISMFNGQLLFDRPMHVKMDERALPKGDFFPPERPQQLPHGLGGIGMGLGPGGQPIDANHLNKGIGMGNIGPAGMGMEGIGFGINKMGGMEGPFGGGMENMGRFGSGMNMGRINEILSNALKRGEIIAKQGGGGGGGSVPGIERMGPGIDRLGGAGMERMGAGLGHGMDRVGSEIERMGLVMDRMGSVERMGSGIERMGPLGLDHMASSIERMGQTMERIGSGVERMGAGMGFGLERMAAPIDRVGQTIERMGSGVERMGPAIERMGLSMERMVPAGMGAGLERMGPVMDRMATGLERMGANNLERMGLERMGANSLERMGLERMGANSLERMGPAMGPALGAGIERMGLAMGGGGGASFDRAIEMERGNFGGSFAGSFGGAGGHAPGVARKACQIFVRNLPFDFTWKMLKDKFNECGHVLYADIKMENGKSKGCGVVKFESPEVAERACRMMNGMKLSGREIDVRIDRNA
Sequence of UniProt O00592 (O00592 whole entry): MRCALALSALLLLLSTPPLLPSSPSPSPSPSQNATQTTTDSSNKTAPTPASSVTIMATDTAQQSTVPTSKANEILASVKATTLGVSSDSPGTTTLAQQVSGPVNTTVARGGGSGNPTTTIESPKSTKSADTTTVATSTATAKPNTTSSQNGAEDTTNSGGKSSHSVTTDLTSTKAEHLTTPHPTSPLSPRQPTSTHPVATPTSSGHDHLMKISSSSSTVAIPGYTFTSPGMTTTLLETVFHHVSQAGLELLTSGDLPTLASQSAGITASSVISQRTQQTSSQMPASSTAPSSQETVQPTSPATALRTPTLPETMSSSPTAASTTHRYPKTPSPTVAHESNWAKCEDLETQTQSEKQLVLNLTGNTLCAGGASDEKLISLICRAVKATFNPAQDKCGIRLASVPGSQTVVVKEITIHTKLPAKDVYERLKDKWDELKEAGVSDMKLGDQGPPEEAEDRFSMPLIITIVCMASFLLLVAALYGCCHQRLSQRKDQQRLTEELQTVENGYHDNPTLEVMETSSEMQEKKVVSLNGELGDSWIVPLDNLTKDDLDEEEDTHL
Sequence of UniProt P40692 (P40692 whole entry): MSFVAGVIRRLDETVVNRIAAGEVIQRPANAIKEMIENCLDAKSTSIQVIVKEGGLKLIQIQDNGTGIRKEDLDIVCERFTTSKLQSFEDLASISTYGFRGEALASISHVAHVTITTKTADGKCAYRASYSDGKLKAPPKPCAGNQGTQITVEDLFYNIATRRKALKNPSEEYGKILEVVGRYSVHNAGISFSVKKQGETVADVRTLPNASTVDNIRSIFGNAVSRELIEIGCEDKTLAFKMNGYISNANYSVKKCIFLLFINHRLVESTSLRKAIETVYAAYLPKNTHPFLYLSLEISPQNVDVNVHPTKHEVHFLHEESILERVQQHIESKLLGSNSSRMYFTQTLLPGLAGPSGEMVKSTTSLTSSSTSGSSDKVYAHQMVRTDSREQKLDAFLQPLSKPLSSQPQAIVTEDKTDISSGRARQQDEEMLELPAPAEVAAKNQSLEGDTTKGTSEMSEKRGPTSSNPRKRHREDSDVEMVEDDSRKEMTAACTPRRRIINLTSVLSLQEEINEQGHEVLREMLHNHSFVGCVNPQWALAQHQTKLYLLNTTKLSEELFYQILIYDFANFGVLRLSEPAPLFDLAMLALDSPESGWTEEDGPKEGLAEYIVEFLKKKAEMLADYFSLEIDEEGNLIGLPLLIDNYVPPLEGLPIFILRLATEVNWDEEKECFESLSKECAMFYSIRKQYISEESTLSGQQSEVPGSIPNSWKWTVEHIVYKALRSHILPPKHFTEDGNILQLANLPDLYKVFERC
Sequence of UniProt Q13107 (Q13107 whole entry): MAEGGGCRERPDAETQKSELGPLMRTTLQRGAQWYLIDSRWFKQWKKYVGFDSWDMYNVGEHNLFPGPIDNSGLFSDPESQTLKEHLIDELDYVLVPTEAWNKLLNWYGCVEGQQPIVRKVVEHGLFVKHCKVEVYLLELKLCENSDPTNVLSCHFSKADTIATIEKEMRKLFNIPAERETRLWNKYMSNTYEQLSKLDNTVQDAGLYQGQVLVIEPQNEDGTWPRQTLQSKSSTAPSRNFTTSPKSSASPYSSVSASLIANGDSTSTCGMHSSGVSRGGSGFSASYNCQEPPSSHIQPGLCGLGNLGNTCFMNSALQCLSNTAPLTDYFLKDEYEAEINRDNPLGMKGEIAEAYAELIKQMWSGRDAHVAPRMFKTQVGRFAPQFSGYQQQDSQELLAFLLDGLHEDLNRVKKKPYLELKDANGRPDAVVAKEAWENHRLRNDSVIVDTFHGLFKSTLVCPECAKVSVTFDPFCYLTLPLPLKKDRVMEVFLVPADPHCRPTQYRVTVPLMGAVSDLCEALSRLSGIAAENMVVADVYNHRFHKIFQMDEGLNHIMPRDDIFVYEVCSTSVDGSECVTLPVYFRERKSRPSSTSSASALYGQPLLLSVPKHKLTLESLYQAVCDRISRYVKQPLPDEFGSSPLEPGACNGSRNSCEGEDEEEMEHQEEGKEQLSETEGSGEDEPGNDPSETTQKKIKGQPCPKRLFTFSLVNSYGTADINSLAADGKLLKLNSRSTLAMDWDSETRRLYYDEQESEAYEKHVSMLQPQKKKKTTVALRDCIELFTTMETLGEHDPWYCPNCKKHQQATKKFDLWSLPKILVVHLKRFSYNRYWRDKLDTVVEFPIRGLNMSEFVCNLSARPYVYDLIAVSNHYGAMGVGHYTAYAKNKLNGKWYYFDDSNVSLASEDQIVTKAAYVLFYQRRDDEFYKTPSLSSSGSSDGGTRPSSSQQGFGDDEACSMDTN
Sequence of UniProt Q6FIF0 (Q6FIF0 whole entry): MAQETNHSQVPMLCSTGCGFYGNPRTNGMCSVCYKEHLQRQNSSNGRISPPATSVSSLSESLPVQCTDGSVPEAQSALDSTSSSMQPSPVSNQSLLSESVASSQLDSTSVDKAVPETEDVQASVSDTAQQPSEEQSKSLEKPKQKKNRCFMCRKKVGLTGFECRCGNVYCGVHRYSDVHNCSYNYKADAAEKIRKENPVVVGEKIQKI
Sequence of UniProt O43913 (O43913 whole entry): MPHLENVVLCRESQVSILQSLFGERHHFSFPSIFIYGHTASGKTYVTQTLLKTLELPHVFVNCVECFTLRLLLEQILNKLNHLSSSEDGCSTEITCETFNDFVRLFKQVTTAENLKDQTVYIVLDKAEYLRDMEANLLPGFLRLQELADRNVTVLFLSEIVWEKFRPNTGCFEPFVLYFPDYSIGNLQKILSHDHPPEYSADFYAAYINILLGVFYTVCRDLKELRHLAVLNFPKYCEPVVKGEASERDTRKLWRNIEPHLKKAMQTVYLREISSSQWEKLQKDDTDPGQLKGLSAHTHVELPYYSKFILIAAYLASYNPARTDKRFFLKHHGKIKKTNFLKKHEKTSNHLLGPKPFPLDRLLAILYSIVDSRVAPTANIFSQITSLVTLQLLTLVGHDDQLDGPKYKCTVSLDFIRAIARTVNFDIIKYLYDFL
Sequence of UniProt Q14566 (Q14566 whole entry): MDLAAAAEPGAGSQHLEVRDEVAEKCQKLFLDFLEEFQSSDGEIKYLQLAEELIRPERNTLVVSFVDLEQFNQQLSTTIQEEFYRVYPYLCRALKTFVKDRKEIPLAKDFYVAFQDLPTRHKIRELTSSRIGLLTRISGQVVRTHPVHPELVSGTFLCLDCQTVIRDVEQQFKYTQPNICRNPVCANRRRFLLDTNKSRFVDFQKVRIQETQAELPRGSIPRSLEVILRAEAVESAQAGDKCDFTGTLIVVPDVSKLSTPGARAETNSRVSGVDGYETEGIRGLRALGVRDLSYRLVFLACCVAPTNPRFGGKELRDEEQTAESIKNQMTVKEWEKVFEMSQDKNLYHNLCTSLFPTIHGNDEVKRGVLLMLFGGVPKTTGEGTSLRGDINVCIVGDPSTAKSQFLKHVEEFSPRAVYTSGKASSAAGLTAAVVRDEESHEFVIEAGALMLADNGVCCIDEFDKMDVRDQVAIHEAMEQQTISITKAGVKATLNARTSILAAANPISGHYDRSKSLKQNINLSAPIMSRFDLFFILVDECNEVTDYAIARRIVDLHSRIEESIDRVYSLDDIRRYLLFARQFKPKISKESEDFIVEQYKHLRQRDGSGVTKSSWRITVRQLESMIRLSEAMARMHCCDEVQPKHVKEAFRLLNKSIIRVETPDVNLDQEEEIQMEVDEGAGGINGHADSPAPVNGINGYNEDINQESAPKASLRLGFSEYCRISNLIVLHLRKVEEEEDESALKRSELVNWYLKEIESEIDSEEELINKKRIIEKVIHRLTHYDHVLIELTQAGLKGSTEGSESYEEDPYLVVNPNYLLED
Sequence of UniProt Q96E11 (Q96E11 whole entry): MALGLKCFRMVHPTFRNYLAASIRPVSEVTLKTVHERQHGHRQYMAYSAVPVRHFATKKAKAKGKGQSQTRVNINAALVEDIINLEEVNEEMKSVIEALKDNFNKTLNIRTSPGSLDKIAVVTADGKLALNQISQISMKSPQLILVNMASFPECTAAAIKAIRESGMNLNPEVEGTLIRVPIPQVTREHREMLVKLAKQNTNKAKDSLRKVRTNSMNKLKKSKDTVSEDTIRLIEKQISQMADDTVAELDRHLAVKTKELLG

Target	thermal stability z-score (potassium arsenate)	thermal stability z-score (lipoamide; [1])	thermal stability z-score (lipoamide; arsenate co-treatment: none)
MGLL (UniProt Q99685)	-0.132	0.592	0.117
VPS35 (UniProt Q96QK1)	-0.541	0.247	0.378
ARMC6 (UniProt Q6NXE6)	1.37	-0.546	-0.743
TUBA4A (UniProt P68366)	-0.681	-0.0177	-0.502
DBR1 (UniProt Q9UK59)	0.5	0.0885	-0.174
EDRF1 (UniProt Q3B7T1)	-0.168	-0.147	-0.327
C8ORF82 (UniProt Q6P1X6)	-0.319	0.229	-0.151
MECR (UniProt Q9BV79)	0.152	0.217	-0.251
NR4A1 (UniProt P22736)	0.179	0.000871	0.0723
PALM (UniProt O75781)	-0.681	-0.195	-0.143
TMPIT|TMEM120A	-0.269	0.15	0.398
ZFAND6 (UniProt Q6FIF0)	-0.0508	0.56	0.219
PPP3CB (UniProt P16298)	-0.199	-0.386	-2.04
TMEM126B (UniProt Q8IUX1)	1.18	1.31	1.36
ARL3 (UniProt P36405)	-0.424	-0.325	-0.435
PPP1CC (UniProt P36873)	-0.446	0.0493	-0.463
GNAI1 (UniProt P63096)	0.0642	0.913	1.18
TRAPPC8 (UniProt Q9Y2L5)	0.311	0.257	0.348
LACTB (UniProt P83111)	-0.604	-0.437	-0.129
HARS2 (UniProt P49590)	-0.0959	-0.108	-0.629
CCS (UniProt O14618)	3.23	1.32	0.653
PODXL (UniProt O00592)	0.395	0.0978	0.132
THBS1 (UniProt P07996)	-0.825	-0.588	-0.841
TRMT11 (UniProt Q7Z4G4)	-0.518	0.259	-0.151

Target	thermal stability z-score (potassium arsenate)	thermal stability z-score (lipoamide; [1])	thermal stability z-score (lipoamide; arsenate co-treatment: none)
DDAH1 (UniProt O94760)	0.259	0.568	0.134
FRMD8 (UniProt Q9BZ67)	-0.172	0.263	0.131
EIF2A (UniProt Q9BY44)	1.13	0.673	0.102
DCAF7 (UniProt P61962)	1.2	0.278	0.939
HNRNPK (UniProt P61978)	-1.69	-0.316	0.559
DDX31 (UniProt Q9H8H2)	-0.348	0.19	0.0101
SQSTM1 (UniProt Q13501)	0.758	-0.226	-0.109
MCM6 (UniProt Q14566)	-0.919	-0.81	-0.253
ORC5 (UniProt O43913)	-0.065	-0.0478	0.0761
BAIAP2 (UniProt Q9UQB8)	-0.138	0.142	0.0757
ERLIN1 (UniProt O75477)	-1.15	-3.16	-2.57
CFL1 (UniProt P23528)	-0.362	0.501	0.449
STIP1 (UniProt P31948)	-0.157	0.275	0.371
CLEC16A (UniProt Q2KHT3)	-0.437	0.0777	-0.0307
COPG2 (UniProt Q9UBF2)	0.0479	-0.16	-0.253
SLC25A17 (UniProt O43808)	-0.824	-0.416	-0.577
GAMT (UniProt Q14353)	-0.0271	-0.374	0.506
DCUN1D4 (UniProt Q92564)	-0.0972	0.0389	-0.0281
SLC26A6 (UniProt Q9BXS9)	0.375	0.538	1.4
PTGS2 (UniProt P35354)	0.269	-0.361	0.261
IDH3B (UniProt O43837)	-1.28	0.075	-1.17
PPP2R1A (UniProt P30153)	-1.48	0.108	0.121
CDK5RAP1 (UniProt Q96SZ6)	0.157	0.128	0.198
ODC1 (UniProt P11926)	0.106	0.0303	0.354

Target	thermal stability z-score (potassium arsenate)	thermal stability z-score (lipoamide; [1])	thermal stability z-score (lipoamide; arsenate co-treatment: none)
MARCH5 (UniProt Q9NX47)	0.411	0.842	-0.0503
MRRF (UniProt Q96E11)	0.97	0.298	0.823
CAMK2G (UniProt Q13555)	0.174	-0.504	-0.174
EIF2S2 (UniProt P20042)	-0.16	0.121	0.0416
MRPS12 (UniProt O15235)	0.233	-0.367	0.0698
MLH1 (UniProt P40692)	1.04	-0.0694	0.372
FAM111B (UniProt Q6SJ93)	9.3	4.69	1.31
FLJ13984|METTL8	0.187	-0.0305	-0.13
MICU1 (UniProt Q9BPX6)	0.746	-0.305	-0.0396
MAP2K1 (UniProt Q02750)	-0.118	-0.382	-0.187
POLR3F (UniProt Q9H1D9)	-1.32	-0.186	-0.242
GART (UniProt P22102)	-0.419	0.221	-0.0107
HNRNPM (UniProt P52272)	-1.87	-0.523	-0.135
CAPRIN1 (UniProt Q14444)	0.295	0.381	0.754
HUWE1 (UniProt Q7Z6Z7)	0.187	-0.216	0.0195
USP4 (UniProt Q13107)	-0.141	-0.209	-0.11
DDX59 (UniProt Q5T1V6)	-1.01	-0.512	-0.363
UNC119 (UniProt Q13432)	-0.0734	0.0331	0.106
B2M (UniProt P61769)	1.06	-0.115	-0.125
AKAP11 (UniProt Q9UKA4)	-0.0869	0.0955	0.0515
SLC30A7 (UniProt Q8NEW0)	0.418	-1.48	-1.78
GALK2 (UniProt Q01415)	-0.778	0.547	-0.155
MAPK9 (UniProt P45984)	-0.98	0.00773	-0.817
